Experimental data published in US9456599B2, “Adjuvants” (SYNGENTA LIMITED, priority 2012, dated 2016).

What was measured:
Septoria tritici [1] = test: Septoria tritici on wheat, epoxiconazole with compound E (Example 9); format: in vivo
Experimental: (§1) Wheat plants were inoculated with the fungus Septoria tritici. Four days after inoculation the plants were sprayed with a diluted suspension concentrate formulation of the fungicide epoxiconazole at rates of 3, 10, 30 and 100 mg of the fungicide per liter of spray solution, using a laboratory track sprayer which delivered the spray at a rate of 200 liters per hectare. Spray tests were also carried out with a diluted suspension concentrate additionally comprising the carbonate compound E (see Table 7) added to the spray solution at a rate of 0.1% v/v, based on the quantity of spray liquor. The leaves of the plants were assessed visually 12 days after the spray application and the damage was expressed as the percentage of the leaf area infected. Each spray test was replicated four times across the four application rates.
(§2) The results shown in Table 14 below are mean averages over the four rates of epoxiconazole and the four replicates, and are compared to the efficacy of epoxiconazole in the absence of an adjuvant, and epoxiconazole in the presence of oleyl ethoxylate 20EO butyl end capped adjuvant used as a standard adjuvant for comparative purposes (at 0.1% by volume).

Setaria viridis [2] = test: Glasshouse post-emergence spray test, fomesafen with adjuvant (Example 2); format: in vivo; conditions: fomesafen 60 or 120 g/ha, carbonate 0.2% v/v or Turbocharge 0.5% v/v; mean over two rates, three replicates, 14 and 21 days
Experimental: (§3) Setaria viridis, Chenopodium album, Abutilon theophrasti and Ipomea hederacea seeds were sown into standard soil in pots and cultivated under controlled conditions in a glasshouse (at 24/18° C. day/night; 16 hours light; 65% humidity).
(§4) When the plants were at the vegetative stage of 2-4 leaves they were sprayed with an aqueous spray solution containing the herbicide fomesafen and 0.2% v/v of one of the carbonates B92-P-Carbonate, B92-B-Carbonate and B96-P-Carbonate (see Table 1).
(§5) The spray solution was applied with a cabinet tracksprayer with a flat fan nozzle (Teejet 11002VS) and an application volume of 200 liter/ha (at 2 bar). Fomesafen was applied at either 60 or 120 grams of pesticide per hectare.
(§6) The test plants were then grown on, in a glasshouse under controlled conditions (at 24/18° C. day/night; 16 hours light; 65% humidity) and watered twice a day. After 14 and 21 days the test was evaluated for general crop injury (100% equals total damage to a plant; 0% equals no damage to a plant).
(§7) The results shown in Table 4 below are mean averages over the two rates of fomesafen, three replicates and the two assessment timings, and are compared to the efficacy of fomesafen in the absence of an adjuvant, and fomesafen in the presence of the commercially available tank-mix adjuvant, Turbocharge®, which was used at an application rate of 0.5% by volume of the spray tank.

Chenopodium album [3] = test: as above; format: in vivo; conditions: fomesafen 60 or 120 g/ha, carbonate 0.2% v/v or Turbocharge 0.5% v/v; mean over two rates, three replicates, 14 and 21 days
Experimental: as §3, §4, §5, §6, §7

Abutilon theophrasti [4] = test: as above; format: in vivo; conditions: fomesafen 60 or 120 g/ha, carbonate 0.2% v/v or Turbocharge 0.5% v/v; mean over two rates, three replicates, 14 and 21 days
Experimental: as §3, §4, §5, §6, §7

COMBEN = test: as above; format: in vivo, Ipomea hederacea; conditions: fomesafen 60 or 120 g/ha, carbonate 0.2% v/v or Turbocharge 0.5% v/v; mean over two rates, three replicates, 14 and 21 days
[5] = system: Setaria viridis, Chenopodium album, Abutilon theophrasti and Ipomea hederacea; test: Glasshouse post-emergence spray test, fomesafen with adjuvant (Example 2), mean across species; format: in vivo; conditions: fomesafen 60 or 120 g/ha, carbonate 0.2% v/v or Turbocharge 0.5% v/v; 14 and 21 days; Tukey HSD letter
Experimental: as §3, §4, §5, §6, §7

[6] = system: Setaria viridis, Chenopodium album, Abutilon theophrasti and Digitaria sanguinalis; test: Glasshouse spray test, nicosulfuron with carbonates A-E (Example 5), mean over four plant species; format: in vivo; conditions: for Mean % Phytotoxicity: Atplus 411F 0.5% by volume, 22 days, mean over rates, replicates, four species; for Adjuvant effect on efficacy of nicosulfuron (in words): 0.2% v/v carbonate with nicosulfuron, Tables 8 and 9
Experimental: (§8) Setaria viridis, Chenopodium album, Abutilon theophrasti and Digitaria sanguinalis seeds were sown into standard soil in pots and cultivated under controlled conditions in a glasshouse (at 24/18° C. day/night; 16 hours light; 65% humidity).
When the plants were at the vegetative stage of 3-4 leaves they were sprayed with an aqueous spray solution containing the herbicide nicosulfuron and 0.2% v/v of one of the carbonates A, B, C, D and E (see Table 7).
Each spray solution was applied with a cabinet tracksprayer with a flat fan nozzle (Teejet 11002VS) and an application volume of 200 liter/ha (at 2 bar). Nicosulfuron was applied at either 15 or 60 grams of pesticide per hectare.
as §6, with “22” for “14 and 21”, “injury or phytotoxicity” for “injury”
(§9) The results shown in Table 8 below are mean averages over the two rates of nicosulfuron, the three replicates and the four plant species, and are compared to the efficacy of nicosulfuron in the absence of an adjuvant and nicosulfuron in the presence of the commercially available tank-mix adjuvant, Atplus411F® (at 0.5% by volume).

[7] = system: Setaria viridis, Chenopodium album, Abutilon theophrasti and Digitaria sanguinalis; test: Glasshouse post-emergence spray test, nicosulfuron with adjuvant (Example 1), mean across species; format: in vivo; conditions: nicosulfuron 30 or 60 g/ha, adjuvant 0.2% by volume; 17 and 21 days; Tukey HSD letter
Experimental: as §8
(§10) When the plants were at the vegetative stage of 3-4 leaves they were sprayed with an aqueous spray solution containing the herbicide nicosulfuron and 0.2% v/v of one of the carbonates, B92-P-Carbonate, B92-B-Carbonate and B96-P-Carbonate (see Table 1).
(§11) Each spray solution was applied with a cabinet tracksprayer with a flat fan nozzle (Teejet 11002VS) and an application volume of 200 liter/ha (at 2 bar). Nicosulfuron was applied at either 30 or 60 grams of pesticide per hectare.
(§12) The test plants were then grown on, in a glasshouse under controlled conditions (at 24/18° C. day/night; 16 hours light; 65% humidity) and watered twice a day. After 17 and 21 days the test was evaluated for general crop injury (100% equals total damage to a plant; 0% equals no damage to a plant).
as §9, with “3” for “8”, “nicosulfuron,” for “nicosulfuron, the”, “two assessment timings,” for “four plant species,”, “0.2%” for “0.5%”

Setaria viridis [8] = test: Glasshouse post-emergence spray test, nicosulfuron with adjuvant (Example 1); format: in vivo; conditions: nicosulfuron 30 or 60 g/ha, adjuvant 0.2% by volume; mean over two rates, three replicates, 17 and 21 days
Experimental: as §8, §10, §11, §12
as §9, with “3” for “8”, “nicosulfuron,” for “nicosulfuron, the”, “two assessment timings,” for “four plant species,”, “0.2%” for “0.5%”

Chenopodium album [9] = test: as above; format: in vivo; conditions: nicosulfuron 30 or 60 g/ha, adjuvant 0.2% by volume; mean over two rates, three replicates, 17 and 21 days
Experimental: as §8, §10, §11, §12
as §9, with “3” for “8”, “nicosulfuron,” for “nicosulfuron, the”, “two assessment timings,” for “four plant species,”, “0.2%” for “0.5%”

Abutilon theophrasti [10] = test: as above; format: in vivo; conditions: nicosulfuron 30 or 60 g/ha, adjuvant 0.2% by volume; mean over two rates, three replicates, 17 and 21 days
Experimental: as §8, §10, §11, §12
as §9, with “3” for “8”, “nicosulfuron,” for “nicosulfuron, the”, “two assessment timings,” for “four plant species,”, “0.2%” for “0.5%”

Digitaria sanguinalis = test: as above; format: in vivo; conditions: nicosulfuron 30 or 60 g/ha, adjuvant 0.2% by volume; mean over two rates, three replicates, 17 and 21 days
Experimental: as §8, §10, §11, §12
as §9, with “3” for “8”, “nicosulfuron,” for “nicosulfuron, the”, “two assessment timings,” for “four plant species,”, “0.2%” for “0.5%”

[11] = system: Brachiaria plantaginea, Digitaria sanguinalis, Commelina benghalensis and Polygonum convulvulus; test: Glasshouse spray test, mesotrione with carbonates A-D (Example 6), mean over four plant species; format: in vivo; conditions: 0.2% v/v carbonate with mesotrione, Table 10
Experimental: Brachiaria plantaginea, Digitaria sanguinalis, Commelina benghalensis and Polygonum convulvulus seeds were sown into standard soil in pots and cultivated under controlled conditions in a glasshouse (at 24/18° C. day/night; 16 hours light; 65% humidity).
When the plants were at the vegetative stage of 2-4 leaves they were sprayed with an aqueous spray solution containing the herbicide mesotrione and 0.2% v/v of one of the carbonates A, B, C and D (see Table 7).
The spray solution was applied with a cabinet tracksprayer with a flat fan nozzle (Teejet 11002VS) and an application volume of 200 liter/ha (at 2 bar). Mesotrione was applied at either 30 or 60 grams of pesticide per hectare.
as §6, with “25” for “14 and 21”, “injury or phytotoxicity” for “injury”
The results shown in Table 10 below are mean averages over the two rates of mesotrione, the three replicates and the four plant species and are compared to the efficacy of mesotrione in the absence of an adjuvant, and mesotrione in the presence of the commercially available tank-mix adjuvant, Tween 20 ®+Rhodasurf DA/630-E® (combined in a 2:1 ratio) at 0.5% by volume.

[12] = system: Avena fatua, Lolium perenne, Setaria viridis and Alopecurus myosuroides; test: Glasshouse spray test, pinoxaden with carbonates A-E (Example 7), mean over four plant species; format: in vivo; conditions: 0.2% v/v carbonate with pinoxaden, Tables 11 and 12
Experimental: Avena fatua, Lolium perenne, Setaria viridis and Alopecurus myosuroides seeds were sown into standard soil in pots and cultivated under controlled conditions in a glasshouse (at 20/16° C. day/night; 15 hours light; 65% humidity).
When the plants were at the vegetative stage of 2-3 leaves they were sprayed with an aqueous spray solution containing the herbicide pinoxaden and 0.2% v/v of one of the carbonates A, B, C, D and E (see Table 7).
The spray solution was applied with a cabinet tracksprayer with a flat fan nozzle (Teejet 11002VS) and an application volume of 200 liter/ha (at 2 bar). Pinoxaden was applied at either 7.5 or 15 grams of pesticide per hectare.
as §6, with “on.” for “on,”, “22” for “14 and 21”, “injury or phytotoxicity” for “injury”
The results shown in Table 11 below are mean averages over the two rates of pinoxaden, the three replicates and the four plant species, and are compared to the efficacy of pinoxaden in the absence of an adjuvant, and pinoxaden in the presence of tris(2-ethylhexyl)phosphate, used as a standard adjuvant for comparative purposes (at 0.2% by […] volume).

Septoria tritici [13] = test: Septoria tritici on wheat, isopyrazam with compound E (Example 8); format: in vivo; conditions: 0.1% v/v compound E with isopyrazam, Table 13
Experimental: as §1, with “isopyrazam” for “epoxiconazole”
as §2, with “13” for “14”, “isopyrazam” for “epoxiconazole”

Compound: Fc1ccc([C@]2(Cn3cncn3)O[C@H]2c2ccccc2Cl)cc1 (racemic) [Epoxiconazole]
- Mean % infection (Septoria tritici [1]; wheat leaf area infected 12 days after spray, epoxiconazole 3, 10, 30 and 100 mg/l, adjuvant 0.1% by volume, mean over four rates, four replicates): 40.0%

Compound: CS(=O)(=O)NC(=O)c1cc(Oc2ccc(C(F)(F)F)cc2Cl)ccc1[N+](=O)[O-] [Fomesafen]
- Mean percentage kill SETVI (Setaria viridis [2]): 19.2%
- Mean percentage kill CHEAL (Chenopodium album [3]): 58.3%
- Mean percentage kill ABUTH (Abutilon theophrasti [4]): 23.3%
- Mean percentage kill COMBEN (COMBEN): 15.0%
- Mean percentage kill, Mean across species [5]: 29.0 C %

Compound: COc1cc(OC)nc(NC(=O)NS(=O)(=O)c2ncccc2C(=O)N(C)C)n1 [Nicosulfuron]
- Mean % Phytotoxicity ([6]; Table 8: nicosulfuron 15 or 60 g/ha, compounds A-D 0.2% by volume): 36.46%
- Mean % Phytotoxicity ([6]; Table 9: nicosulfuron 15 or 60 g/ha, compound E 0.2% by volume): 28.3%
- Mean percentage kill, Mean across species [7]: 49.0 B %
- Mean percentage kill SETVI (Setaria viridis [8]): 79.2%
- Mean percentage kill CHEAL (Chenopodium album [9]): 36.7%
- Mean percentage kill ABUTH (Abutilon theophrasti [10]): 48.3%
- Mean percentage kill DIGSA (Digitaria sanguinalis): 31.7%

Compound: CCOC(=O)OCC(COC(=O)OCC)OC(=O)OCC [compound A, Glycerol-(CO3-ethyl)3]
- Adjuvant effect on efficacy of mesotrione (in words) [11]: particularly effective at increasing the efficacy of mesotrione compositions
- Adjuvant effect on efficacy of nicosulfuron (in words) [6]: increase the efficacy of nicosulfuron compositions

Compound: CCCCC(CC)COC(=O)OCC(COC(=O)OCC(CC)CCCC)OC(=O)OCC(CC)CCCC (stereo not drawn) [compound B, Glycerol-(CO3-2-ethylhexy1)3]
- Adjuvant effect on efficacy of mesotrione (in words) [11]: particularly effective at increasing the efficacy of mesotrione compositions
- Adjuvant effect on efficacy of nicosulfuron (in words) [6]: increase the efficacy of nicosulfuron compositions
- Adjuvant effect on efficacy of pinoxaden (in words) [12]: most effective at increasing the efficacy of the pinoxaden composition

Compound: Glycerol-(6EO-CO3-2- ethylhexyl)3 [compound C]
- Adjuvant effect on efficacy of nicosulfuron (in words) [6]: particularly effective as adjuvants for nicosulfuron

Compound: Glycerol-(6EO-CO3- phenyl)3 [compound D]
- Adjuvant effect on efficacy of nicosulfuron (in words) [6]: particularly effective as adjuvants for nicosulfuron

Compound: Oleyl 10EO-(CO3-2- ethylhexyl) [compound E]
- Effect on infection by S. tritici versus isopyrazam without adjuvant (in words) (Septoria tritici [13]): significant reduction in the percentage of infection by S. tritici
- Effect on infection by S. tritici versus epoxiconazole without adjuvant (in words) (Septoria tritici [1]; 0.1% v/v compound E with epoxiconazole, Table 14): significant reduction in the percentage of infection by S. tritici
- Adjuvant effect on efficacy of nicosulfuron (in words) [6]: particularly effective adjuvant for nicosulfuron
- Adjuvant effect on efficacy of pinoxaden (in words) [12]: effective as an adjuvant for pinoxaden
